Laboratory results: patent publication US20260027116A1, “Methods of Treating Chronic Graft-Versus-Host Disease Following Allogeneic Hematopoietic Stem Cell Transplantation” (Kadmon Corporation, LLC, priority 2022, published 2026)

Tested on: patients with cGVHD
Details: Cohort 3 400 mg QD

CC(C)NC(=O)COc1cccc(-c2nc(Nc3ccc4[nH]ncc4c3)c3ccccc3n2)c1 [Belumosudil, 2-{3-[4-(1H-indazol-5-ylamino)-2-quinazolinyl]phenoxy}-N-(propan-2-yl) acetamide]
Fungal infection: # Events: 0
Fungal infection: Affected/At Risk (%): 0/21 (0%)
Gamma-glutamyltransferase increased: # Events: 0
Gamma-glutamyltransferase increased: Affected/At Risk (%): 0/21 (0%)
Gastric ulcer: # Events: 0
Gastric ulcer: Affected/At Risk (%): 0/21 (0%)
Gastrooesophageal reflux disease: # Events: 2
Gastrooesophageal reflux disease: Affected/At Risk (%): 2/21 (9.52%)
Generalised oedema: # Events: 1
Generalised oedema: Affected/At Risk (%): 1/21 (4.76%)
Genital infection fungal: # Events: 0
Genital infection fungal: Affected/At Risk (%): 0/21 (0%)
Glaucoma: # Events: 0
Glucose urine present: # Events: 3
Glucose urine present: Affected/At Risk (%): 1/21 (4.76%)
Grade ≥3 AE, No. (%): 14 (67)
Grade ≥3 ALT/AST increased, No. (%): 0
Grade ≥3 Anemia, No. (%): 0
Grade ≥3 Dyspnea, No. (%): 4 (19)
Grade ≥3 Hyperglycemia, No. (%): 2 (10)
Grade ≥3 Hypoxia, No. (%): 2 (10)
Grade ≥3 Lung infection or pneumonia, No. (%): 2 (10)
Graft versus host disease in gastrointestinal tract: # Events: 0
Graft versus host disease in gastrointestinal tract: Affected/At Risk (%): 0/21 (0%)
Gynaecomastia: # Events: 0
Gynaecomastia: Affected/At Risk (%): 0/21 (0%)
Haematuria: # Events: 2
Haematuria: Affected/At Risk (%): 1/21 (4.76%)
Hair growth abnormal: # Events: 0
Hair growth abnormal: Affected/At Risk (%): 0/21 (0%)
Headache: # Events: 8
Headache: Affected/At Risk (%): 6/21 (28.57%)
Hodgkin's disease recurrent: # Events: 0
Hodgkin's disease recurrent: Affected/At Risk (%): 0/21 (0%)
Hordeolum: # Events: 1
Hordeolum: Affected/At Risk (%): 1/21 (4.76%)
Hot flush: # Events: 0
Hot flush: Affected/At Risk (%): 0/21 (0%)
Hyperglycemia: # Events: 8
Hyperglycemia: Affected/At Risk (%): 3/21 (14.29%)
Hyperhidrosis: # Events: 1
Hyperhidrosis: Affected/At Risk (%): 1/21 (4.76%)
Hyperkalaemia: # Events: 4
Hyperkalaemia: Affected/At Risk (%): 3/21 (14.29%)
Hypertension: # Events: 6
Hypertension: Affected/At Risk (%): 4/21 (19.05%)
Hyperthyroidism: # Events: 1
Hyperthyroidism: Affected/At Risk (%): 1/21 (4.76%)
Hypertriglyceridaemia: # Events: 0
Hypertriglyceridaemia: Affected/At Risk (%): 0/21 (0%)
Hyperuricaemia: # Events: 5
Hyperuricaemia: Affected/At Risk (%): 3/21 (14.29%)
Hypoaesthesia: # Events: 1
Hypoaesthesia: Affected/At Risk (%): 1/21 (4.76%)
Hypocalcaemia: # Events: 1
Hypocalcaemia: Affected/At Risk (%): 1/21 (4.76%)
Hypogonadism: # Events: 0
Hypogonadism: Affected/At Risk (%): 0/21 (0%)
Hypokalaemia: # Events: 0
Hypokalaemia: Affected/At Risk (%): 0/21 (0%)
Hypomagnesaemia: # Events: 1
Hypomagnesaemia: Affected/At Risk (%): 1/21 (4.76%)
Hyponatraemia: # Events: 2
Hyponatraemia: Affected/At Risk (%): 2/21 (9.52%)
Hypophosphataemia: # Events: 1
Hypophosphataemia: Affected/At Risk (%): 1/21 (4.76%)
Hypothermia: # Events: 0
Hypothermia: Affected/At Risk (%): 0/21 (0%)
Hypothyroidism: # Events: 4
Hypothyroidism: Affected/At Risk (%): 3/21 (14.29%)
Hypoxia: # Events: 3
Hypoxia: Affected/At Risk (%): 3/21 (14.29%)
Impaired healing: # Events: 0
Impaired healing: Affected/At Risk (%): 0/21 (0%)
Influenza like illness: # Events: 0
Influenza like illness: Affected/At Risk (%): 0/21 (0%)
Influenza: # Events: 2
Influenza: Affected/At Risk (%): 2/21 (9.52%)
Insomnia: # Events: 3
Insomnia: Affected/At Risk (%): 3/21 (14.29%)
Irritability: # Events: 0
Irritability: Affected/At Risk (%): 0/21 (0%)
Joint range of motion decreased: # Events: 1
Joint range of motion decreased: Affected/At Risk (%): 1/21 (4.76%)
Lacrimation increased: # Events: 0
Lacrimation increased: Affected/At Risk (%): 0/21 (0%)
Leukaemia recurrent: # Events: 0
Leukaemia recurrent: Affected/At Risk (%): 0/21 (0%)
Leukocytosis: # Events: 1
Leukocytosis: Affected/At Risk (%): 1/21 (4.76%)
Ligament sprain: # Events: 0
Ligament sprain: Affected/At Risk (%): 0/21 (0%)
Limb injury: # Events: 1
Limb injury: Affected/At Risk (%): 1/21 (4.76%)
Macular degeneration: # Events: 0
Macular degeneration: Affected/At Risk (%): 0/21 (0%)
Migraine: # Events: 0
Migraine: Affected/At Risk (%): 0/21 (0%)
Muscle spasms: # Events: 6
Muscle spasms: Affected/At Risk (%): 6/21 (28.57%)
Muscle spasticity: # Events: 1
Muscle spasticity: Affected/At Risk (%): 1/21 (4.76%)
Muscular weakness: # Events: 2
Muscular weakness: Affected/At Risk (%): 2/21 (9.52%)
Musculoskeletal chest pain: # Events: 1
Musculoskeletal chest pain: Affected/At Risk (%): 1/21 (4.76%)
Myalgia: # Events: 3
Myalgia: Affected/At Risk (%): 3/21 (14.29%)
Nail disorder: # Events: 0
Nail disorder: Affected/At Risk (%): 0/21 (0%)
Nasal congestion: # Events: 1
Nasal congestion: Affected/At Risk (%): 1/21 (4.76%)
Nausea: # Events: 12
Nausea: Affected/At Risk (%): 9/21 (42.86%)
Neck pain: # Events: 0
Neck pain: Affected/At Risk (%): 0/21 (0%)
Nephrotic syndrome: # Events: 0
Nephrotic syndrome: Affected/At Risk (%): 0/21 (0%)
Neuropathy peripheral: # Events: 2
Neuropathy peripheral: Affected/At Risk (%): 1/21 (4.76%)
Neutrophil count decreased: # Events: 1
Neutrophil count decreased: Affected/At Risk (%): 1/21 (4.76%)
Nocturia: # Events: 0
Nocturia: Affected/At Risk (%): 0/21 (0%)
Non-cardiac chest pain: # Events: 1
Non-cardiac chest pain: Affected/At Risk (%): 1/21 (4.76%)
Obesity: # Events: 0
Obesity: Affected/At Risk (%): 0/21 (0%)
Oedema peripheral: # Events: 6
Oedema peripheral: Affected/At Risk (%): 6/21 (28.57%)
Oedema: # Events: 0
Oedema: Affected/At Risk (%): 0/21 (0%)
Oesophageal ulcer: # Events: 0
Oesophageal ulcer: Affected/At Risk (%): 0/21 (0%)
Oral candidiasis: # Events: 0
Oral candidiasis: Affected/At Risk (%): 0/21 (0%)
Oropharyngeal pain: # Events: 1
Oropharyngeal pain: Affected/At Risk (%): 1/21 (4.76%)
Orthopnoea: # Events: 0
Orthopnoea: Affected/At Risk (%): 0/21 (0%)
Osteonecrosis: # Events: 0
Osteonecrosis: Affected/At Risk (%): 0/21 (0%)
Osteopenia: # Events: 0
Osteopenia: Affected/At Risk (%): 0/21 (0%)
Osteoporosis: # Events: 0
Osteoporosis: Affected/At Risk (%): 0/21 (0%)
Overdose: # Events: 0
Overdose: Affected/At Risk (%): 0/21 (0%)
Pain in extremity: # Events: 5
Pain in extremity: Affected/At Risk (%): 4/21 (19.05%)
Pain: # Events: 1
Pain: Affected/At Risk (%): 1/21 (4.76%)
Palpitations: # Events: 1
Palpitations: Affected/At Risk (%): 1/21 (4.76%)
Paraesthesia: # Events: 1
Paraesthesia: Affected/At Risk (%): 1/21 (4.76%)
Pericardial effusion: # Events: 0
Pericardial effusion: Affected/At Risk (%): 0/21 (0%)
Peripheral coldness: # Events: 0
Peripheral coldness: Affected/At Risk (%): 0/21 (0%)
Peripheral sensory neuropathy: # Events: 0
Peripheral sensory neuropathy: Affected/At Risk (%): 0/21 (0%)
Phlebitis: # Events: 0
Phlebitis: Affected/At Risk (%): 0/21 (0%)
Photophobia: # Events: 2
Photophobia: Affected/At Risk (%): 2/21 (9.52%)
Platelet count decreased: # Events: 0
Platelet count decreased: Affected/At Risk (%): 0/21 (0%)
Pleural effusion: # Events: 1
